In experiment [1] the test system is diamondback moth. Nature of the experiment: Insecticidal test on diamondback moth. The class given is in vivo. The note with it: Plutella xylostella, 144 h. On the procedure:
A wettable powder prepared in accordance with Formulation Example 2 was diluted with water to a concentration of an active ingredient of 500 ppm. Cabbage leaves were dipped in this solution and dried in air and then put in a plastic cup having a capacity of 60 mL. 10 second-instar larvae of diamondback moth were released in the cup and the cup was lidded. Then, the cup was placed in a thermostatic chamber at 25° C. for 6 days, and dead moths were counted for calculation of the mortality by Equation 2. The test was carried out by one series system.

Experiment [2] concerns brown rice planthopper. Nature of the experiment: Insecticidal test on brown rice planthopper. The class given is in vivo. The conditions noted are these: 144 h. The protocol: A wettable powder prepared in accordance with Formulation Example 2 was diluted with water to a concentration of an active ingredient of 500 ppm. Rice sprouts were dipped in this solution and put in a plastic cup having a capacity of 60 mL. Ten third-instar larvae of brown rice planthopper were released in the cup, the cup was lidded and placed in a thermostatic chamber at 25° C. for 6 days, and the number of dead larvae were counted for calculation of the mortality by Equation 2. The test was carried out by one series system.

Experiment [3] has as its system two-spotted spider mites. Kind of experiment: Miticidal test on two-spotted spider mites (seedling dip). The class given is in vivo, Tetranvchus urticae. The conditions noted are these: Glycine max, 312 h; 500 ppm active ingredient, soybean seedlings with imago mites dipped, 25° C., 13 days; read-out: protective value. The protocol: A wettable powder prepared in accordance with Formulation Example 2 was diluted with water to a concentration of an active ingredient of 500 ppm. Soybean seedlings which had been inoculated with imago two-spotted spider mites were dipped in the solution and dried in air. The treated soybean seedlings were placed in a thermostatic chamber at 25° C. for 13 days, and the number of live mites were assessed for calculation of the protective value by Equation 1. The test was carried out by one series system.

The subject of experiment [4] is cotton aphid. Nature of the experiment: Insecticidal test on cotton aphid (seedling dip). The class given is in vivo. The note with it: Aphis gossypii, in Cucumis sativus, 72 h. On the procedure:
A wettable powder prepared in accordance with Formulation Example 2 was diluted with water to a concentration of an active ingredient of 500 ppm. Cucumber seedlings which had been inoculated with larvae of cotton aphid were dipped in this solution and dried in air. The treated cucumber seedlings were placed in a thermostatic chamber at 25° C. for 3 days, and the live insects were counted for calculation of the mortality by Equation 2. The test was carried out by one series system.

Where two headings read alike, the source gives them in different places.

In general, mortality refers to the share of the test organisms that died.

`Cc1cc(F)c(-n2nc(OCC(F)(F)C(F)(F)F)c(F)c2N)cc1SCC(F)(F)F` [1-41, 5-amino-1-{2-fluoro-4-methyl-5-(2,2,2-trifluoroethylthio)phenyl}-4-fluoro-3-(2,2,3,3,3-pentafluoropropoxy)pyrazole]: the mortality at 500 ppm was at least 90% in experiment [1] (500 ppm active ingredient, cabbage leaves dipped, second-instar larvae, 25° C., 6 days, read-out: mortality) and at least 90% in experiment [2].
As for `Cc1cc(F)c(-n2nc(OCC(F)(F)C(F)(F)F)c(Cl)c2N)cc1SCC(F)(F)F` [1-43, 5-amino-4-chloro-1-{2-fluoro-4-methyl-5-(2,2,2-trifluoroethylthio)phenyl}-3-(2,2,3,3,3-pentafluoropropoxy)pyrazole], the mortality at 500 ppm in experiment [1] (in Brassica oleracea) and in experiment [2] was at least 90% each time. The pest or weed control at 500 ppm in experiment [3] was at least 90%.
As to `Cc1cc(F)c(-n2nc(OCC(F)(F)C(F)(F)F)c(Cl)c2Cl)cc1SCC(F)(F)F` [1-111, 1-{2-fluoro-4-methyl-5-(2,2,2-trifluoroethylthio)phenyl}-4,5-dichloro-3-(2,2,3,3,3-pentafluoropropoxy)pyrazole], in experiment [3], the pest or weed control at 500 ppm was at least 90%. In experiment [2], the mortality at 500 ppm is at least 90%.
On to `Cc1cc(F)c(-n2nc(OCC(F)(F)C(F)(F)F)cc2C#N)cc1[S+]([O-])CC(F)(F)F` (stereo not shown) [1-134, 5-cyano-1-{2-fluoro-4-methyl-5-(2,2,2-trifluoroethylsulfinyl)phenyl}-3-(2,2,3,3,3-pentafluoropropoxy)pyrazole], for which the pest or weed control at 500 ppm in experiment [3] was at least 90%. In experiment [2], this compound registered a mortality at 500 ppm of at least 90%.
Consider `Cc1cc(F)c(-n2nc(OCC(F)(F)C(F)(F)F)cc2C(=O)O)cc1SCC(F)(F)F` [1-145, 1-{2-fluoro-4-methyl-5-(2,2,2-trifluoroethylthio)phenyl}-3-(2,2,3,3,3-pentafluoropropoxy)pyrazole-5-carboxylic acid], for which the mortality at 500 ppm in experiment [2] is at least 90%.
As for `Cc1cc(F)c(-n2nc(OCC(F)(F)C(F)(F)F)cc2C=O)cc1SCC(F)(F)F` [1-199, 1-{2-fluoro-4-methyl-5-(2,2,2-trifluoroethylthio)phenyl}-5-formyl-3-(2,2,3,3,3-pentafluoropropoxy)pyrazole], the mortality at 500 ppm in experiment [1] (in Brassica oleracea) was at least 90%. Moreover, in experiment [3], the pest or weed control at 500 ppm is at least 90%.
For `Cc1cc(F)c(-n2nc(OCC(F)(F)C(F)(F)F)cc2CO)cc1SCC(F)(F)F` [1-201, 1-{2-fluoro-4-methyl-5-(2,2,2-trifluoroethylthio)phenyl}-5-hydroxymethyl-3-(2,2,3,3,3-pentafluoropropoxy)pyrazole], the pest or weed control at 500 ppm in experiment [3] was at least 90%. Further, in experiment [2], the mortality at 500 ppm was at least 90%.
Turning to `Cc1cc(F)c(-n2nc(OCCC(F)(F)F)cc2C)cc1SCC(F)(F)F` [1-249, 1-{2-fluoro-4-methyl-5-(2,2,2-trifluoroethylthio)phenyl}-5-methyl-3-(3,3,3-trifluoropropoxy)pyrazole], in experiment [3], the pest or weed control at 500 ppm was at least 90%. Further, the mortality at 500 ppm in experiment [2] was at least 90%.
As for `Cc1cc(F)c(-n2nc(OCCC(F)(F)F)cc2C)cc1[S+]([O-])CC(F)(F)F` (stereo not shown) [1-250, 1-{2-fluoro-4-methyl-5-(2,2,2-trifluoroethylsulfinyl)phenyl}-5-methyl-3-(3,3,3-trifluoropropoxy)pyrazole], in experiment [3], the pest or weed control at 500 ppm was at least 90%. In addition, the mortality at 500 ppm in experiment [2] and in experiment [4] was at least 90% in each case.
For the compound `Cc1cc(F)c(-n2nc(OC(F)(F)C(F)C(F)(F)F)cc2Cl)cc1SCC(F)(F)F` (stereo not shown) [1-253, 5-chloro-1-{2-fluoro-4-methyl-5-(2,2,2-trifluoroethylthio)phenyl}-3-(1,1,2,3,3,3-hexafluoropropoxy)pyrazole], the pest or weed control at 500 ppm in experiment [3] is at least 90%. The mortality at 500 ppm in experiment [2] and in experiment [4] was at least 90% throughout.
`CNc1c(Cl)c(OC(F)(F)C(F)C(F)(F)F)nn1-c1cc(SCC(F)(F)F)c(C)cc1F` (stereo not shown) [1-261, 4-chloro-1-{2-fluoro-4-methyl-5-(2,2,2-trifluoroethylthio)phenyl}-3-(1,1,2,3,3,3-hexafluoropropoxy)-5-methylaminopyrazole]: the mortality at 500 ppm in experiment [1] (in Brassica oleracea) and in experiment [2] was at least 90% each time. In addition, the pest or weed control at 500 ppm in experiment [3] is at least 90%.
Take `CNc1c(Cl)c(OC(F)(F)C(F)C(F)(F)F)nn1-c1cc([S+]([O-])CC(F)(F)F)c(C)cc1F` (stereo not shown) [1-262, 4-chloro-1-{2-fluoro-4-methyl-5-(2,2,2-trifluoroethylsulfinyl)phenyl}-3-(1,1,2,3,3,3-hexafluoropropoxy)-5-methylaminopyrazole]: the mortality at 500 ppm in experiment [1] (in Brassica oleracea) and in experiment [2] was at least 90% throughout. For the same compound, the pest or weed control at 500 ppm in experiment [3] was at least 90%.
On to `Cc1cc(F)c(-n2nc(OC(F)(F)C(F)C(F)(F)F)c(Cl)c2N)cc1SCC(F)(F)F` (stereo not shown) [1-263, 5-amino-4-chloro-1-{2-fluoro-4-methyl-5-(2,2,2-trifluoroethylthio)phenyl}-3-(1,1,2,3,3,3-hexafluoropropoxy)pyrazole], for which the mortality at 500 ppm in experiment [1] (in Brassica oleracea) and in experiment [2] was at least 90% in each case. Further, the pest or weed control at 500 ppm in experiment [3] is at least 90%.
`Cc1cc(F)c(-n2nc(OC(F)(F)C(F)C(F)(F)F)c(Cl)c2N)cc1[S+]([O-])CC(F)(F)F` (stereo not shown) [1-264, 5-amino-4-chloro 1-{2-fluoro-4-methyl-5-(2,2,2-trifluoroethylsulfinyl)phenyl}-3-(1,1,2,3,3,3-hexafluoropropoxy)pyrazole]: the mortality at 500 ppm in experiment [1] (in Brassica oleracea) and in experiment [2] was at least 90% each time. The pest or weed control at 500 ppm in experiment [3] is at least 90%.
In the case of `Cc1cc(F)c(-n2cc(Cl)c(OC(F)(F)C(F)OC(F)(F)F)n2)cc1SCC(F)(F)F` (stereo not shown) [1-289, 4-chloro-1-{2-fluoro-4-methyl-5-(2,2,2-trifluoroethylthio)phenyl}-3-{1,1,2-trifluoro-2-(trifluoromethoxy)ethoxy}pyrazole], the pest or weed control at 500 ppm in experiment [3] is at least 90%. The mortality at 500 ppm in experiment [2] was at least 90%.
Take `Cc1cc(F)c(-n2cc(Cl)c(OC(F)(F)C(F)OC(F)(F)F)n2)cc1[S+]([O-])CC(F)(F)F` (stereo not shown) [1-290, 4-chloro-1-{2-fluoro-4-methyl-5-(2,2,2-trifluoroethylsulfinyl)phenyl}-3-{1,1,2-trifluoro-2-(trifluoromethoxy)ethoxy}pyrazole]: the pest or weed control at 500 ppm in experiment [3] is at least 90%. Further, the mortality at 500 ppm in experiment [2] was at least 90%.
On to `Cc1cc(F)c(-n2nc(OC(F)(F)C(F)OC(F)(F)F)c(Cl)c2Cl)cc1SCC(F)(F)F` (stereo not shown) [1-291, 4,5-dichloro-1-{2-fluoro-4-methyl-5-(2,2,2-trifluoroethylthio)phenyl}-3-{1,1,2-trifluoro-2-(trifluoromethoxy)ethoxy}pyrazole], for which the mortality at 500 ppm in experiment [1] (in Brassica oleracea) and in experiment [2] was at least 90% throughout. In addition, the pest or weed control at 500 ppm in experiment [3] was at least 90%.
Regarding `Cc1cc(F)c(-n2nc(OC(F)(F)C(F)OC(F)(F)F)c(Cl)c2Cl)cc1[S+]([O-])CC(F)(F)F` (stereo not shown) [1-292, 4,5-dichloro-1-{2-fluoro-4-methyl-5-(2,2,2-trifluoroethylsulfinyl)phenyl}-3-{1,1,2-trifluoro-2-(trifluoromethoxy)ethoxy}pyrazole], the mortality at 500 ppm in experiment [1] (in Brassica oleracea) and in experiment [2] was at least 90% in each case. Further, the pest or weed control at 500 ppm in experiment [3] is at least 90%.
Consider `Cc1cc(F)c(-n2nc(OC(F)(F)C(F)OC(F)(F)F)cc2C#N)cc1[S+]([O-])CC(F)(F)F` (stereo not shown) [1-669, 5-cyano-1-{2-fluoro-4-methyl-5-(2,2,2-trifluoroethylsulfinyl)phenyl}-3-{1,1,2-trifluoro-2-(trifluoromethoxy)ethoxy}pyrazole], for which, in experiment [3], the pest or weed control at 500 ppm was at least 90%. This compound also gave a mortality at 500 ppm in experiment [2] of at least 90%.
Regarding `Cc1cc(F)c(-n2nc(OC(F)(F)C(F)OC(F)(F)F)cc2C(F)F)cc1[S+]([O-])CC(F)(F)F` (stereo not shown) [1-1532, 5-difluoromethyl-1-{2-fluoro-4-methyl-5-(2,2,2-trifluoroethylsulfinyl)phenyl}-3-{1,1,2-trifluoro-2-(trifluoromethoxy)ethoxy}pyrazole], in experiment [3], the pest or weed control at 500 ppm is at least 90%. The compound also returned a mortality at 500 ppm in experiment [2] of at least 90%.
As to `Cc1cc(F)c(-n2ccc(Oc3ccc(C(F)(F)F)cc3)n2)cc1[S+]([O-])CC(F)(F)F` (stereo not shown) [1-1586, 1-{2-fluoro-4-methyl-5-(2,2,2-trifluoroethylsulfinyl)phenyl}-3-{4-(trifluoromethyl)phenoxy}pyrazole], in experiment [3], the pest or weed control at 500 ppm is at least 90%. This compound showed a mortality at 500 ppm in experiment [2] of at least 90%.
`Cc1cc(F)c(-n2cc(C#N)c(OC(F)(F)C(F)OC(F)(F)F)n2)cc1[S+]([O-])CC(F)(F)F` (stereo not shown) [1-1588, 4-cyano-1-{2-fluoro-4-methyl-5-(2,2,2-trifluoroethylsulfinyl)phenyl}-3-{1,1,2-trifluoro-2-(trifluoromethoxy)ethoxy}pyrazole]: the pest or weed control at 500 ppm in experiment [3] is at least 90%.
With `Cc1cc(F)c(-n2ccc(C(F)(F)F)n2)cc1SCC(F)(F)F` [V-613, reference compound], the mortality at 500 ppm in experiment [4] is 0%.

For the origin of these results see patent US8802713B2, “3-alkoxy-1-phenylpyrazole derivatives and pesticides” (Kumiai Chemical Industry Co., Ltd., priority 2007, dated 2014).
